Laboratory results from patent US20170217946A1, “AMINO-SUBSTITUTED ISOXAZOLES” (Bayer Pharma Aktiengesellschaft, priority 2014, published 2017).

Key:
[1] = test system: spindle assembly checkpoint (phosphorylated histone H3 on serine 10) in HeLa cells; assay: SAC-Formation - Paclitaxel-Induced Assay; type: cell-based; conditions: Homo sapiens, paclitaxel 0.05 μM, 24 h incubation
From the text: The spindle assembly checkpoint assures the proper segregation of chromosomes during mitosis. Upon entry into mitosis, chromosomes begin to condensate which is accompanied by the phosphorylation of histone H3 on serine 10. Dephosphorylation of histone H3 on serine 10 begins in anaphase and ends at early telophase. Accordingly, phosphorylation of histone H3 on serine 10 can be utilized as a marker of cells in mitosis. Nocodazole is a microtubule destabilizing substance. Paclitaxel is a microtubule stabilizing compound. Thus, nocodazole as well as paclitaxel interfere with microtubule dynamics and mobilize the spindle assembly checkpoint. […] The mitotic breakthrough can be detected by the decrease of cells with phosphorylation of histone H3 on serine 10. This decline is used as a marker to determine the capability of compounds of the present invention to induce a mitotic breakthrough. The typical morphological alteration of nuclei with a prematurely completed mitosis after SAC-inhibition can be monitored via image analysis routines supporting those findings.
The nocodazole and paclitaxel variations were used to focus on compounds that are capable of inhibiting a SAC induced by both microtubule destabilization as well as microtubule stabilization. […]
Cultivated cells of the human cervical tumor cell line HeLa (ATCC CCL-2) were plated at a density of 1000 cells/well in a 1536-well microtiter plate in 2 μl PAA Ham's F12 Medium supplemented with 1% (v/v) glutamine, 1% (v/v) penicillin, 1% (v/v) streptomycin and 10% (v/v) fetal calf serum. […] Images were acquired with a PERKIN ELMER OPERA™ High-Content Analysis reader. Images were analyzed with image analysis software MetaXpress™ from Molecular devices utilizing the Mitotic Index application module. In this assay both labels HOECHST 33342 and phosphorylated Histone H3 on serine 10 were measured. […] The raw assay data were further analyzed by four-parametric hill equation using Genedata's Assay Analyzer and Condoseo software.

human Bub1 = target: T1, human Bub1 (Homo sapiens, UniProt O43683); assay: Bub1 kinase assay (TR-FRET); type: biochemical; conditions: 10 μM ATP
T1 construct: catalytic domain of human Bub1 (amino acids 704-1085); His6 (N); made in house; host or cells: insect cells (Hi5)
From the text: Bub1-inhibitory activity of compounds of the present invention was quantified employing the Bub1 TR-FRET assay as described in the following paragraphs.
N-terminally His6-tagged recombinant catalytic domain of human Bub1 (amino acids 704-1085), expressed in insect cells (Hi5) and purified by Ni-NTA affinity chromatography and subsequent size exclusion chromatography, was used as enzyme. As substrate for the kinase reaction the biotinylated peptide biotin-Ahx-VLLPKKSFAEPG (C-terminus in amid form) was used which can be purchased e.g. form the company Biosyntan (Berlin, Germany).
For the assay 50 nl of a 100 fold concentrated solution of the test compound in DMSO was pipetted into a black low volume 384 well microtiter plate (Greiner Bio-One, Frickenhausen, Germany), 2 μl of a solution of Bub1 in aqueous assay buffer [50 mM Tris/HCl pH 7.5, 10 mM magnesium chloride (MgCl2), 200 mM potassium chloride (KCl), 1.0 mM dithiothreitol (DTT), 0.1 mM sodium ortho-vanadate, 1% (v/v) glycerol, 0.01% (w/v) bovine serum albumine (BSA), 0.005% (v/v) Trition X-100 (Sigma), 1× Complete EDTA-free protease inhibitor mixture (Roche)] were added and the mixture was incubated for 15 min at 22° C. to allow pre-binding of the test compounds to the enzyme before the start of the kinase reaction. Then the kinase reaction was started by the addition of 3 μl of a solution of adenosine-tri-phosphate (ATP, 16.7 μM=>final conc. in the 5 μl assay volume is 10 μM) and substrate (1.67 μM=>final conc. in the 5 μl assay volume is 1 μM) in assay buffer and the resulting mixture was incubated for a reaction time of 60 min at 22° C. The concentration of Bub1 was adjusted depending of the activity of the enzyme lot and was chosen appropriate to have the assay in the linear range, typical concentrations were in the range of 200 ng/ml. The reaction was stopped by the addition of 5 μl of a solution of TR-FRET detection reagents (0.2 μM streptavidine-XL665 [Cisbio Bioassays, Codolet, France] and 1 nM anti-phosho-Serine antibody [Merck Millipore, cat. #35-001] and 0.4 nM LANCE EU-W1024 labeled anti-mouse IgG antibody [Perkin-Elmer, product no. AD0077, as an alternative a Terbium-cryptate-labeled anti-mouse IgG antibody from Cisbio Bioassays can be used]) in an aqueous EDTA-solution (50 mM EDTA, 0.2% (w/v) bovine serum albumin in 100 mM HEPES pH 7.5).
The resulting mixture was incubated 1 h at 22° C. to allow the formation of complex between the phosphorylated biotinylated peptide and the detection reagents. Subsequently the amount of phosphorylated substrate was evaluated by measurement of the resonance energy transfer from the Eu-chelate to the streptavidine-XL. Therefore, the fluorescence emissions at 620 nm and 665 nm after excitation at 350 nm was measured in a TR-FRET reader, e.g. a Rubystar or Pherastar (both from BMG Labtechnologies, Offenburg, Germany) or a Viewlux (Perkin-Elmer). The ratio of the emissions at 665 nm and at […] was taken as the measure for the amount of phosphorylated substrate. The data were normalised (enzyme reaction without inhibitor=0% inhibition, all other assay components but no enzyme=100% inhibition).

T1 sequence (O43683 704-1085): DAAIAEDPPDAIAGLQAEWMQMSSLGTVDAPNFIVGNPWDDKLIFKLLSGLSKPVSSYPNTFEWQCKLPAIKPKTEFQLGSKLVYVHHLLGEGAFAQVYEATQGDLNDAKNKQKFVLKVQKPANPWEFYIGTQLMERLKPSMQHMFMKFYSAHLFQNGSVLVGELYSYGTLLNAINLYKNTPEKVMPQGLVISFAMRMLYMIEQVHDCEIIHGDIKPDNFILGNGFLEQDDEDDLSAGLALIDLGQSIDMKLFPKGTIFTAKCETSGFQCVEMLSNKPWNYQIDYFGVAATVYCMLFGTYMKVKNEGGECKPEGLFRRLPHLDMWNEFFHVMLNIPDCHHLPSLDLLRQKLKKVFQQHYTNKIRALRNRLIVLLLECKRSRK

| IC50 [1] | IC50 (human Bub1) | SMILES |
| --- | --- | --- |
| 630 nM | > 20000 nM | Cc1noc(Nc2cnc(C(=O)NC3CCN(CC(F)F)CC3)cn2)c1C(=O)Nc1ccc(F)c(F)c1 [Example 1b, N-[1-(2,2-Difluoroethyl)piperidin-4-yl]-5-({4-[(3,4-difluorophenyl)carbamoyl]-3-methyl-1,2-oxazol-5-yl}amino)pyrazine-2-carboxamide] |
| 180 nM | > 20000 nM | Cc1noc(Nc2cnc(C(F)(F)F)cn2)c1C(=O)Nc1ccc(F)c(F)c1 [Example 1c, N-(3,4-Difluorophenyl)-3-methyl-5-{[5-(trifluoromethyl)pyrazin-2-yl]amino}-1,2-oxazole-4-carboxamide] |
| 760 nM | > 20000 nM | Cc1noc(Nc2cnc(C(F)(F)F)cn2)c1C(=O)Nc1ccc(OC2CCN(CCC(F)(F)F)CC2)nc1 [Example 1a, 3-Methyl-5-{[5-(trifluoromethyl)pyrazin-2-yl]amino}-N-(6-{[1-(3,3,3-trifluoropropyl)-piperidin-4-yl]oxy}pyridin-3-yl)-1,2-oxazole-4-carboxamide] |
